According to patent US20020115728A1, “Compositions and methods for treating cardiovascular disorders” (priority 2000, published 2002):
Marks after values point to notes of the source that are not given here.

How the values were obtained:
[1] = system: α-tocopheroxyl radical; assay: Tocopheroxyl radical attenuating ability (TRAA); format: biochemical; details: kobs with (+) or without (−) test compound
[2] = system: apoE−/−;LDLr−/− mice; assay: Plasma lipid and vitamin E levels; format: in vivo; details: chow with 0.03% bisphenol, 14 weeks
Method: Male apoE−/−;LDLr−/− mice (59 total), were maintained on standard R3 chow from weaning to 8 weeks of age (young controls, n=9). Thereafter mice received R3 chow with (n=25) or without supplemented bisphenol (n=25) for an additional 14 weeks. Standard R3-mouse chow was fortified with bisphenol at 0.03% (w/w), a level of supplementation shown in pilot experiments to afford circulating concentrations of the drug of ˜200 μM, considered suitable to test the effect of the co-antioxidant on atherogenesis in this animal model. At 22 weeks of age 10 and 15 mice of each group were used for biochemical and histological analyses, respectively. […]
Analyses of oxidised and non-oxidised lipids were carried out by RP-HPLC as described in Example 1 except that in some instances UV234 nm rather than post-column chemiluminescence detection was used to measure C18:2-OOH and the corresponding hydroxides (together referred to as CE-O(O)H) which show similar retention times under these chromatographic conditions. α-TQ, α-TOH, α-tocotrienol, D-isosascorbate and ascorbate were determined by HPLC with electrochemical detection. For oxidation of plasma, unesterified cholesterol (which remained non-oxidised in these experiments) was employed as internal standard for all polyunsaturated, lipid-soluble components analysed. […] All compounds were quantified by peak area comparison with authentic standards. […]

[3] = system: apoE−/− mice; assay: Plasma lipids and antioxidants; format: in vivo; details: 1% probucol, 24 weeks
Method: Male C57BL/6J mice, homozygous for the disrupted apoE gene (apoE−/−) were fed standard chow (Lab-Feed, Sydney, Australia) until aged 10 weeks. […] The high fat diet (control and probucol-supplemented) was prepared, according to the specifications of the Harlan Teklad diet TD88137.
Plasma was obtained from control and probucol mice and aliquots frozen for subsequent determination of lipids. Separate aliquots were acidified with metaphosphoric acid (5%) to stabilize vitamin C prior to freezing and storage at −80° C. The remainder was pooled appropriately and used for ex vivo oxidation initiated by the peroxyl radical generator AAPH and lipoprotein separation by FPLC with UV280nm detection, as described in J Lipid Res. 1999;40:1104-1112.
Lipid-soluble antioxidants and lipids were quantified by HPLC as described in FASEB J. 1999;13:667-675. For ascorbate analysis, frozen acidified samples were thawed, diluted with DPBS to adjust the pH to 7.4 and then immediately subjected to HPLC. Plasma triglycerides were determined enzymatically (Boehringer, Mannheim, Germany).
ApoE−/− mice were fed either a control or probucol-supplemented diet for 24 weeks before aortas and plasma were analysed.

[4] = system: ballooned New Zealand White rabbits; assay: Re-endothelialization in cholesterol-fed and normal chow fed ballooned rabbits; format: in vivo
Description: Results are from two separate experiments and represent mean±SD of six (cholesterol diet) and five animals (normal diet) per group. Asterisk indicates statistically significant higher values compared with corresponding controls, with p-values of 0.002, 0.015 and 0.025 for *, ** and * respectively.

[5] = system: cholesterol-fed, ballooned New Zealand White rabbits; assay: Atherosclerosis/restenosis and lipid oxidation in cholesterol-fed, ballooned rabbits; format: in vivo; details: 2% cholesterol diet with 1% probucol, 6 weeks
Method: Aortic endothelial denudation was performed at week 3 by withdrawing an inflated 3F Fogarty balloon embolectomy catheter three times down the length of the aorta. Plasma was obtained from animals as described in Example 1 at the start and end of the study. At the end of the study period, individual aortas were removed and prepared for HPLC analysis as in Example 1. Lipids and antioxidants including probucol and its metabolites, bisphenol and diphenoquinone, were analyzed by RP-HPLC as described previously. Aortas designated for histology were perfusion-fixed with 4% (v/v) formaldehyde and transferred into formalin. Cross-sections (2-3 μm thick) were prepared and stained with Weigert's hematoxylin-van Gieson, and the intima to media ratio determined for three sections.

[6] = 2% Cholesterol-fed ballooned rabbits
[7] = Normal Chow fed ballooned rabbits

SMILES: CC(C)(C)c1cc(-c2cc(C(C)(C)C)c(O)c(C(C)(C)C)c2)cc(C(C)(C)C)c1O [Bisphenol, bisphenol]
- TRAA (decay of tocopheroxyl radical; kobs(+)/kobs(−)) [1]: Immediate decay
- Plasma Triglycerides [2]: 6.3 (0.5) mm

SMILES: CC(C)(Sc1cc(C(C)(C)C)c(O)c(C(C)(C)C)c1)Sc1cc(C(C)(C)C)c(O)c(C(C)(C)C)c1 [Probucol, probucol]
- decrease of plasma vitamin E vs controls [3]: ~4 fold
- increase of plasma ascorbate vs controls [3]: ~1.4 fold
- Plasma Ascorbate ([3]; plasma): 129.2 µM
- Plasma C18:2 ([3]; plasma): 1.3 ± 0.8 mM
- Plasma C20:4 ([3]; plasma): 0.2 ± 0.2 mM
- Plasma C (cholesterol) ([3]; plasma): 2.6 ± 1.2 mM
- Plasma CE-OH ([3]; plasma): 0.0002 mM
- Plasma Total coenzyme Q ([3]; plasma): 0.4 µM
- Plasma Triglycerides ([3]; plasma): 0.4 ± 0.0 mM
- Plasma Ubiquinol-10 ([3]; plasma): 0.01 ± 0.02 µM
- Plasma Ubiquinone-9 ([3]; plasma): 0.3 ± 0.1 µM
- Plasma Ubiquinone-10 ([3]; plasma): 0.1 ± 0.1 µM
- Plasma α-Tocopherol ([3]; plasma): 10.5 ± 3.50 µM
- Re-endothelialized area, Abdominal Aorta [4, 6]: 55.1 ± 7.1** % total surface area
- Re-endothelialized area, Thoracic Aorta [4, 6]: 57.3 ± 5.1* % total surface area
- Re-endothelialized area, Abdominal Aorta [4, 7]: 48.2 ± 9.0*** % total surface area
- Re-endothelialized area, Thoracic Aorta [4, 7]: 50.4 ± 6.4** % total surface area
- content of plasma and aortic lipids and absolute amounts of oxidized lipids [5]: significantly decreased
- proportion of aortic lipids that was oxidized [5]: not affected
- effect on atherosclerosis ([5]; aortic denudation at week 3): significantly decreased
